{
  "source": "ChEMBL document CHEMBL4814037",
  "about": "“Synthesis of pyrazoline fatty chain derivatives and its effects on melanoma cells” (2021)",
  "key": {"B16-F10 [1]": {"tested_on": "B16-F10", "assay": "Cytotoxicity against mouse B16-F10 cells assessed as cell viability at 3000 uM incubated for 72 hrs relative to control", "type": "functional", "settings": "for viability at 3000 µM: read-out: Activity"}, "B16-F10 [2]": {"tested_on": "B16-F10", "assay": "Cytotoxicity against mouse B16-F10 cells assessed as cell viability at 3000 uM incubated for 24 hrs relative to control", "type": "functional", "settings": "for viability at 3000 µM: read-out: Activity"}, "B16-F10 [3]": {"tested_on": "B16-F10", "assay": "Cytotoxicity against mouse B16-F10 cells assessed as cell viability at 300 uM incubated for 48 hrs relative to control", "type": "functional", "settings": "read-out: Activity"}, "B16-F10 [4]": {"tested_on": "B16-F10", "assay": "Cytotoxicity against mouse B16-F10 cells assessed as cell viability at 3000 uM incubated for 48 hrs relative to control", "type": "functional", "settings": "read-out: Activity"}, "B16-F10 [5]": {"tested_on": "B16-F10", "assay": "Cytotoxicity against mouse B16-F10 cells assessed as cell viability at 300 uM incubated for 72 hrs relative to control", "type": "functional", "settings": "for viability at 300 µM: read-out: Activity"}, "B16-F10 [6]": {"tested_on": "B16-F10", "assay": "Cytotoxicity against mouse B16-F10 cells assessed as cell viability at 300 uM measured immediately relative to control", "type": "functional", "settings": "read-out: Activity"}, "B16-F10 [7]": {"tested_on": "B16-F10", "assay": "Cytotoxicity against mouse B16-F10 cells assessed as cell viability at 30 uM incubated for 48 hrs relative to control", "type": "functional", "settings": "read-out: Activity"}, "B16-F10 [8]": {"tested_on": "B16-F10", "assay": "Cytotoxicity against mouse B16-F10 cells assessed as decrease in cell viability at 3000 uM incubated for 72 hrs", "type": "functional, cell-based"}, "B16-F10 [9]": {"tested_on": "B16-F10", "assay": "Cytotoxicity against mouse B16-F10 cells assessed as cell viability at 300 uM incubated for 24 hrs relative to control", "type": "functional", "settings": "read-out: Activity"}, "B16-F10 [10]": {"tested_on": "B16-F10", "assay": "Cytotoxicity against mouse B16-F10 cells assessed as cell viability at 30 uM incubated for 72 hrs relative to control", "type": "functional", "settings": "read-out: Activity"}, "B16-F10 [11]": {"tested_on": "B16-F10", "assay": "Cytotoxicity against mouse B16-F10 cells assessed as cell viability at 3 uM incubated for 48 hrs relative to control", "type": "functional", "settings": "read-out: Activity"}, "B16-F10 [12]": {"tested_on": "B16-F10", "assay": "Cytotoxicity against mouse B16-F10 cells assessed as cell viability at 3 to 3000 uM measured after 48 to 72 hrs", "type": "functional, cell-based", "settings": "dose 3-3000 µM, time 48-72 hrs"}},
  "note": "Activity calls are given as the source filed them. The rule behind the calls is not given here.",
  "data": [
    {"smiles": "CCCCCCC1=NN(C(N)=O)C(O)(C(F)(F)F)C1", "note": "(stereo not drawn)", "values": [
      {"measurement": "Activity", "setting": "B16-F10 [1]", "result": "Active"},
      {"measurement": "viability at 3000 µM", "setting": "B16-F10 [2]", "result": 76, "unit": "%"},
      {"measurement": "viability at 300 µM", "setting": "B16-F10 [3]", "result": 53, "unit": "%"},
      {"measurement": "viability at 3000 µM", "setting": "B16-F10 [4]", "result": 8, "unit": "%"},
      {"measurement": "Activity", "setting": "B16-F10 [5]", "result": "Active"}
    ]},
    {"smiles": "CCCCCCCCCCCC1=NN(C(N)=O)C(O)(C(F)(F)F)C1", "note": "(stereo not drawn)", "values": [
      {"measurement": "viability at 300 µM", "setting": "B16-F10 [6]", "result": 78, "unit": "%"},
      {"measurement": "viability at 30 µM", "setting": "B16-F10 [7]", "result": 76, "unit": "%"},
      {"measurement": "Activity", "setting": "B16-F10 [8]", "result": "Active"},
      {"measurement": "viability at 300 µM", "setting": "B16-F10 [3]", "result": 16, "unit": "%"},
      {"measurement": "viability at 300 µM", "setting": "B16-F10 [9]", "result": 17, "unit": "%"},
      {"measurement": "viability at 30 µM", "setting": "B16-F10 [10]", "result": 51, "unit": "%"}
    ]},
    {"smiles": "CCCCCCC1=NN(C(N)=S)C(O)(C(F)(F)F)C1", "note": "(stereo not drawn)", "values": [
      {"measurement": "viability at 3000 µM", "setting": "B16-F10 [1]", "result": 8, "unit": "%"},
      {"measurement": "viability at 3000 µM", "setting": "B16-F10 [2]", "result": 16, "unit": "%"},
      {"measurement": "viability at 3000 µM", "setting": "B16-F10 [4]", "result": 8, "unit": "%"}
    ]},
    {"smiles": "CCCCCCCCCCCC1=NN(C(N)=S)C(O)(C(F)(F)F)C1", "note": "(stereo not drawn)", "values": [
      {"measurement": "viability at 3 µM", "setting": "B16-F10 [11]", "result": 89, "unit": "%"},
      {"measurement": "viability at 30 µM", "setting": "B16-F10 [7]", "result": 67, "unit": "%"},
      {"measurement": "viability at 300 µM", "setting": "B16-F10 [3]", "result": 18, "unit": "%"},
      {"measurement": "viability at 300 µM", "setting": "B16-F10 [5]", "result": 10, "unit": "%"},
      {"measurement": "viability at 300 µM", "setting": "B16-F10 [9]", "result": 17, "unit": "%"}
    ]},
    {"smiles": "NC(=S)N1N=CCC1(O)C(F)(F)F", "note": "(stereo not drawn)", "values": [
      {"measurement": "inhibition", "setting": "B16-F10 [12]", "result": "Active"}
    ]},
    {"smiles": "NC(=O)N1N=CCC1(O)C(F)(F)F", "note": "(stereo not drawn)", "values": [
      {"measurement": "viability at 3000 µM", "setting": "B16-F10 [1]", "result": 7, "unit": "%"},
      {"measurement": "viability at 300 µM", "setting": "B16-F10 [3]", "result": 43, "unit": "%"},
      {"measurement": "viability at 3000 µM", "setting": "B16-F10 [4]", "result": 17, "unit": "%"},
      {"measurement": "viability at 300 µM", "setting": "B16-F10 [5]", "result": 17, "unit": "%"}
    ]},
    {"smiles": "CC1=NN(C(N)=O)C(O)(C(F)(F)F)C1", "note": "(stereo not drawn)", "values": [
      {"measurement": "Activity", "setting": "B16-F10 [8]", "result": "Active"}
    ]},
    {"smiles": "CC1=NN(C(N)=S)C(O)(C(F)(F)F)C1", "note": "(stereo not drawn)", "values": [
      {"measurement": "viability at 3000 µM", "setting": "B16-F10 [1]", "result": 4, "unit": "%"},
      {"measurement": "Activity", "setting": "B16-F10 [2]", "result": "Active"},
      {"measurement": "viability at 3000 µM", "setting": "B16-F10 [4]", "result": 9, "unit": "%"}
    ]}
  ]
}
